Experimental data: paper PMC11541474, “Toward New Therapeutics for Visceral Leishmaniasis: Efficacy and Mechanism of Action of Amides Inspired by Gibbilimbol B” (ACS Omega, 2024)

Experiments:
Format in all cases: cell-based, Leishmania (L.) infantum
[1] = test system: L. (L.) infantum intracellular amastigotes; assay: ex-vivo assay using intracellular amastigotes of L. (L.) infantum; conditions: for S.I. amastigote (selectivity index): CC50 against NCTC cells/EC50 against amastigotes; for EC50: Leishmania infantum, L. (L.) infantum intracellular amastigotes, read-out: Ec50 Amastigote (μm) ± SD
Description: (§1) Evaluation of in vitro activity against promastigote and amastigote forms of L. (L.) infantum was performed as previously reported assays.[40]−[43] The CC50 and EC50 values were calculated using sigmoidal dose–response curves using Graph Pad Prism 5.0 software. One-way ANOVA testing with Tukey’s multiple comparison tests were used for evaluation of the statistical significance (p-value) of differences between the samples, which were tested in duplicate and all assays were repeated at least twice.

[2] = test system: L. (L.) infantum promastigotes; assay: mitochondrial membrane electric potential, JC-1 flow cytometry; conditions: 9 at 141.5 μM, 10 at 110.1 μM, 4 h exposure
Description: Mitochondria perform several vital functions and play an essential role in maintaining cellular balance, thus making them a potential target for new drugs against Leishmania spp. Mitochondria are composed of two interconnected membranes and play crucial roles in energy production (ATP), calcium regulation, and the induction of programmed cell death among other processes.[22],[23] Prolonged changes in mitochondrial membrane potential can lead to irreversible cellular damage.[24] The mitochondrial membrane potential of L. (L.) infantum promastigotes (Figure 6) was evaluated by flow cytometry using JC-1.[25] […] The compound carbonyl cyanide m-chlorophenyl […] (CCCP) was used to induce maximum depolarization (positive control), whereas untreated parasites served as a negative control. […] Both alterations may have contributed to the observed mitochondrial dysfunction and might explain the reduction in ROS levels after treatment that was observed. […] JC-1 dye fluorescence was measured by flow cytometry (excitation and emission at 488 and 530 nm, respectively) after incubation. […] Fluorescence is reported as the quotient of channels BL2/BL1.**: p = 0.0001. […] Fluorescence was measured with excitation and emission filters at 488 and 530 nm (BL-1)/574 nm (BL-2), respectively. […]

[3] = test system: L. (L.) infantum promastigotes
Description: Changes in the plasma membrane integrity of Leishmania spp. can lead to cell death due to pore formation, pH imbalance, and nutrient-transport failure. Initially, the fluorescent probe Sytox Green was employed to analyze the permeability of the plasma membrane. […] Untreated parasites were used as a negative control for normalization (0% permeabilization) whereas the nonionic surfactant Triton X-100 was used for as positive control (100% permeabilization).
Figure 4 Plasma membrane permeability in L. (L.) infantum promastigotes after 4 h of treatment with compound (A) 9 (141.5 μM) or (B) 10 (110.1 μM), using the fluorescent probe Sytox Green (p < 0.0001). Negative control: untreated parasites; positive control: Triton X-100 (TX-100).
Assays for determination of plasma membrane integrity of L. (L.) infantum were conducted as previously reported.[46] Briefly, compounds 9 (141.5 μM) and 10 (110.1 μM) were added to different wells and the resulting fluorescence was measured using a fluorimetric microplate reader (FilterMax F5Multi-Mode, Molecular Devices). Triton X-100 (0.5%, v/v) and untreated parasites were used as positive negative controls, respectively.[47]

[4] = test system: L. (L.) infantum promastigotes; conditions: 9 at 141.5 μM, 10 at 110.1 μM, after 240 min
Description: Figure 5 Evaluation of ROS in promastigotes of L. (L.) infantum treated with compounds 9 (141.5 μM) or 10 (110.1 μM). […]
Measurements of ROS were conducted as previously reported.[48] Briefly, promastigotes were treated with compounds 9 (141.5 μM) or 10 (110.1 μM) in HBSS+Glu at 24 °C using H2DCFDA (Molecular Probes). Fluorescence was measured using a fluorimetric microplate reader (FilterMax F5Multi-Mode, Molecular Devices) with excitation and emission filters at 485 and 520 nm, respectively.[48] Untreated and treated parasites (H2O2 - 40 μM) were used as negative and positive controls, respectively.

[5] = test system: L. (L.) infantum promastigotes; assay: in vitro activity against promastigote forms of L. (L.) infantum; conditions: Leishmania infantum; L. (L.) infantum promastigotes; read-out: Ec50 Promastigote (μm) ± SD
Description: as §1

Structure (SMILES)	S.I. amastigote (selectivity index) [1]	EC50 [1]	mitochondrial membrane potential (JC-1) compared with untreated promastigotes [2]	permeabilization of the plasma membrane (Sytox Green) [3]	ROS levels compared with negative control (H2DCFDA) [4]	EC50 [5]
CCCCC(CC)CNC(=O)c1ccc(Cl)cc1 (stereo not drawn) [Compound 9, N-(2-Ethylhexyl)-4-chlorobenzamide]	>15.7	12.7 ± 4.9 µM	significant depolarization of the mitochondrial membrane	did not induce permeabilization of the membrane	significantly reduced ROS levels	41.9 ± 2.1 µM
CCCCC(CC)CNC(=O)c1ccc([N+](=O)[O-])cc1 (stereo not drawn) [Compound 10, N-(2-Ethylhexyl)-4-nitrobenzamide]	>16.4	12.2 ± 7.2 µM	not statistically significant	did not induce permeabilization of the membrane	significantly reduced ROS levels	44.3 ± 0.4 µM
